Results on 21 compounds are retold here after US9655887B2, “Pharmaceutical composition and the use thereof, and application regime of said pharmaceutical composition for on-demand contraception” (BAYER PHARMA AKTIENGESELLSCHAFT, priority 2013, dated 2017).

For test [1], the system named is fertility of the female rat. Briefly: Single administration of EP2 receptor antagonists and COX inhibitors alone or in combination, fertility of the rat (implantation sites). Format: in vivo, female Han Wistar rats. As for the experimental part:
6. Effect of a Single Administration of EP2 Receptor Antagonists and COX Inhibitors Alone or in Combination on the Fertility of the Rat
In the experiments below, female Han Wistar rats having a weight of 200-270 g were used. The animals were kept in Makrolon cages in rooms with controlled lighting (12 hours of darkness; 12 hours of light), fed with a standard diet and provided with water ad libitum.
EP2 receptor antagonists were dissolved in benzyl benzoate/castor oil (1+4 v/v), and the dose was administered in a volume of 1 ml/kg of body weight s.c. Optionally, EP2 receptor antagonists were also administered orally in the same vehicle as the COX inhibitors (see below). […]
The COX inhibitors were suspended in a carrier liquid (85 mg of Myrj®53 polyoxyl(50)stearate; CAS No. 9004-99-3) in 100 ml of 0.9% w/v NaCl solution), and the dose corresponding to the treatment group was administered in a volume of 2 ml/kg of body weight.
Prior to the start of the experiment, two cycles were observed using vaginal swabs. Only animals having a regular 4-day cycle were used in the experiment. The animals were randomized to the treatment groups.
The animals were treated once in the proestrus, the day in the cycle when the LH peak occurs in the evening, with the test substances either alone or in combination. On the evening of the proestrus, the female animals mated with a male rat. Successive mating was confirmed by detection of vaginal sperms in the vaginal swab the next morning. The effect on fertility was determined 9-15 days after mating by the number of implantation sites of the animals. […]

For test [2], the target named is EP2 subtype of the human PGE2 receptor (hEP2 receptor) (Homo sapiens, UniProt P43116). The test is described as follows: cAMP antagonism test, human prostaglandin E2 (subtype EP2) receptor signal. Format: cell-based. Put shortly: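 Cells (625000 cells/ml, mixed with cAMP-d2) were preincubated 20 min at RT with compound ([…]). They were then stimulated 60 min at RT with a 3× PGE2 solution (1.5 nM) in PBS-IBMX and lysed for 20 min. cAMP was read by HTRF as the 665/620 nm ratio ×10000, with antagonism seen as a rise in FRET signal.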
EP2 subtype of the human PGE2 receptor (hEP2 receptor), sequence (P43116 whole entry): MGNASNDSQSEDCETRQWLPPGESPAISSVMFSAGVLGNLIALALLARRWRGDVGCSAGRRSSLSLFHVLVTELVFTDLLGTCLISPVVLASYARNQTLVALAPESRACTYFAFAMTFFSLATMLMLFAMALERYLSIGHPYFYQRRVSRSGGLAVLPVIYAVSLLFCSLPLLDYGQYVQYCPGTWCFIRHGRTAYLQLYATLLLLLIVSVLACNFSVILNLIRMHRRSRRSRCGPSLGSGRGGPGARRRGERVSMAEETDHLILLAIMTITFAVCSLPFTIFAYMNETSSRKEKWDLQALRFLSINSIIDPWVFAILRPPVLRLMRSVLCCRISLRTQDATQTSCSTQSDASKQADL

The mark [3] stands for this setting: proestrus, oral administration of EP2 receptor antagonist 2 mg/animal, divided to 16:00 and 17:00.
Setting [4] is: single administration in proestrus, E161 2 mg/animal, 18:00.
Setting [5] is: Table 6.4, single administration in proestrus, Meloxicam 0.25 mg/animal, 17:00, data of n = 5 animals.
Setting [6] is: Table 6.4, single administration in proestrus, Meloxicam 0.5 mg/animal, 17:00.
Setting [7] is: Table 6.4, single administration in proestrus, Meloxicam 1 mg/animal, 17:00.
Where [8] appears, read: Table 6.4, single administration in proestrus, Meloxicam 2 mg/animal, 17:00, data of n = 5 animals.
[9] abbreviates: Table 6.5, single administration in proestrus, Meloxicam 2 mg/animal, 17:00, data of n = 5 animals.

Marks after values point to notes of the source that are not given here.

The IC50 is the concentration that inhibits the measured activity by half. As for `COCCNC(=O)c1ccc2nn(CC3CCN(C(=O)c4ccc(Oc5ccc(C(F)(F)F)cn5)cc4)CC3)cc2c1C` [Example E161, N-(2-methoxyethyl)-4-methyl-2-{[1-(4-{[5-(trifluoromethyl)pyridin-2-yl]oxy}benzoyl)piperidin-4-yl]methyl}-2H-indazole-5-carboxamide], in test [1] (setting [3]), the “Absolute implantations number of 6 animals” value (from here on “Absolute implantations number”) is recorded as 69 and the “Implantations per animal (mean ± SD)” value is on record as 11.5 ± 3.1. Moreover, in test [1] (setting [4]), the “Absolute implantations number” value is reported as 55 and the “Implantations per animal (mean ± SD)” value was determined as 9.0 ± 3.4. This compound also showed an IC50 in test [2] of more than 50 nM. Regarding `Cc1cnc(NC(=O)C2=C(O)c3ccccc3S(=O)(=O)N2C)s1` [Meloxicam, meloxicam, reference compound], the “Absolute implantations number” value in test [1] (setting [5]) is given as 32*; in test [1] (setting [6]), 70; in test [1] (setting [7]), 66; in test [1] (setting [8]), 54*; in test [1] (setting [9]), 63*. For the same compound, the “Implantations per animal (mean ± SD)” value in test [1] (setting [5]) turned out to be 6.4 ± 5.9; in test [1] (setting [6]), 11.7 ± 6.4; in test [1] (setting [7]), 11 ± 5.5; in test [1] (setting [8]) it was 10.8 ± 4.4; in test [1] (setting [9]), 12.6 ± 3.4. For the compound `COCCNC(=O)c1ccc2nn(CC3CCN(C(=O)c4ccc(-c5ccc(F)cc5)cc4F)CC3)cc2c1C` [Example E40, 2-({1-[(3,4′-difluorobiphenyl-4-yl)carbonyl]piperidin-4-yl}methyl)-N-(2-methoxyethyl)-4-methyl-2H-indazole-5-carboxamide], the IC50 in test [2] was more than 50 nM. Compound `Cc1c(C(=O)NCCOC(F)(F)F)ccc2nn(CC3CN(C(=O)c4ccc(Cl)cc4)C3)cc12` [Example E105, 2-{[1-(4-chlorobenzoyl)azetidin-3-yl]methyl}-4-methyl-N-[2-(trifluoromethoxy)ethyl]-2H-indazole-5-carboxamide] registered an IC50 in test [2] of more than 50 nM.

On to `COCCNC(=O)c1ccc2nn(CC3CCN(C(=O)c4ccc(-c5ccccc5)c(C)c4)CC3)cc2c1C` [Example E207, N-(2-methoxyethyl)-4-methyl-2-({1-[(2-methylbiphenyl-4-yl)carbonyl]piperidin-4-yl}-methyl)-2H-indazole-5-carboxamide], for which the IC50 in test [2] is more than 50 nM. In test [2], `COCCNC(=O)c1ccc2nn(CC3CCN(C(=O)c4ccc(Oc5cccc(C(F)(F)F)n5)cc4)CC3)cc2c1C` [Example E165, N-(2-methoxyethyl)-4-methyl-2-{[1-(4-{[6-(trifluoromethyl)pyridin-2-yl]oxy}benzoyl)-piperidin-4-yl]methyl}-2H-indazole-5-carboxamide] had an IC50 of more than 50 nM. For the compound `Cc1c(C(=O)NCC(F)(F)F)ccc2nn(CC3CCN(C(=O)c4ccc(Oc5ccc(C(F)(F)F)nc5)cc4)CC3)cc12` [Example E128, 4-methyl-N-(2,2,2-trifluoroethyl)-2-{[1-(4-{[6-(trifluoromethyl)pyridin-3-yl]oxy}-benzoyl)piperidin-4-yl]methyl}-2H-indazole-5-carboxamide], in test [2], the IC50 was more than 50 nM. `COCCNC(=O)c1ccc2nn(CC3CCN(C(=O)c4ccc(-c5ccc(F)cc5)c(C)c4)CC3)cc2c1C` [Example E203, 2-({1-[(4′-fluoro-2-methylbiphenyl-4-yl)carbonyl]piperidin-4-yl}methyl)-N-(2-methoxyethyl)-4-methyl-2H-indazole-5-carboxamide] returned an IC50 in test [2] of more than 50 nM. As to `Cc1c(C(=O)NCCOC(C)C)ccc2nn(CC3CCN(C(=O)c4ccc(C(F)(F)F)cc4)CC3)cc12` [Example E74, N-(2-isopropoxyethyl)-4-methyl-2-({1-[4-(trifluoromethyl)benzoyl]piperidin-4-yl}-methyl)-2H-indazole-5-carboxamide], the IC50 in test [2] is more than 50 nM. Consider `COCCNC(=O)c1ccc2nn(CC3CCN(C(=O)c4ccc(-c5cc(F)cc(F)c5)cc4)CC3)cc2c1C` [Example E202, 2-({1-[(3′,5′-difluorobiphenyl-4-yl)carbonyl]piperidin-4-yl}methyl)-N-(2-methoxy-ethyl)-4-methyl-2H-indazole-5-carboxamide], for which the IC50 in test [2] is more than 50 nM. As to `Cc1c(C(=O)NCC(F)(F)F)ccc2nn(CC3CCN(C(=O)c4ccc(Oc5cccc(C(F)(F)F)c5)cc4)CC3)cc12` [Example E132, 4-methyl-N-(2,2,2-trifluoroethyl)-2-[(1-{4-[3-(trifluoromethyl)phenoxy]benzoyl}-piperidin-4-yl)methyl]-2H-indazole-5-carboxamide], the IC50 in test [2] was more than 50 nM. Consider `Cc1c(C(=O)NCCOC(C)(C)C)ccc2nn(CC3CCN(C(=O)c4ccc(Oc5ccc(C(F)(F)F)cc5)cc4)CC3)cc12` [Example E84, N-(2-tert-butoxyethyl)-4-methyl-2-[(1-{4-[4-(trifluoromethyl)phenoxy]benzoyl}-piperidin-4-yl)methyl]-2H-indazole-5-carboxamide], for which the IC50 in test [2] is more than 50 nM. As to `COCCNC(=O)c1ccc2nn(CC3CCN(C(=O)c4ccc(-c5ccc(OC)nc5)cc4)CC3)cc2c1C` [Example E188, N-(2-methoxyethyl)-2-({1-[4-(6-methoxypyridin-3-yl)benzoyl]piperidin-4-yl}methyl)-4-methyl-2H-indazole-5-carboxamide], the IC50 in test [2] is more than 50 nM.

In test [2], `COCCNC(=O)c1ccc2nn(CC3CCN(C(=O)c4ccc(-c5ccc(OC)cc5C)cc4)CC3)cc2c1C` [Example E183, N-(2-methoxyethyl)-2-({1-[(4′-methoxy-2′-methylbiphenyl-4-yl)carbonyl]piperidin-4-yl}methyl)-4-methyl-2H-indazole-5-carboxamide] gave an IC50 of more than 50 nM. Take `Cc1c(C(=O)NCCOC(C)(C)C)ccc2nn(CC3CCN(C(=O)c4ccc(Cl)cc4)CC3)cc12` [Example E81, N-(2-tert-butoxyethyl)-2-{[1-(4-chlorobenzoyl)piperidin-4-yl]methyl}-4-methyl-2H-indazole-5-carboxamide]: in test [2], the IC50 is more than 50 nM. As for `Cc1ccc(C(=O)N2CCC(Cn3cc4c(C)c(C(=O)NCCOC(C)C)ccc4n3)CC2)cc1` [Example E72, N-(2-isopropoxyethyl)-4-methyl-2-{[1-(4-methylbenzoyl)piperidin-4-yl]methyl}-2H-indazole-5-carboxamide], the IC50 in test [2] is more than 50 nM. In turn, `COCCNC(=O)c1ccc2nn(CC3CCN(C(=O)c4ccc(-c5cccc(C(F)(F)F)n5)cc4)CC3)cc2c1C` [Example E182, N-(2-methoxyethyl)-4-methyl-2-[(1-{4-[6-(trifluoromethyl)pyridin-2-yl]benzoyl}-piperidin-4-yl)methyl]-2H-indazole-5-carboxamide] yielded a concentration for half-maximal inhibition (IC50) in test [2] of more than 50 nM. Turning to `COCCNC(=O)c1ccc2nn(CC3CCN(C(=O)c4ccc(-c5cccnc5)c(C)c4)CC3)cc2c1C` [Example E205, N-(2-methoxyethyl)-4-methyl-2-({1-[3-methyl-4-(3-pyridyl)benzoyl]piperidin-4-yl}-methyl)-2H-indazole-5-carboxamide], the IC50 in test [2] was more than 50 nM. Turning to `COCCNC(=O)c1ccc2nn(CC3CCN(C(=O)c4ccc(-c5ccc(C)nc5)cc4)CC3)cc2c1C` [Example E190, N-(2-methoxyethyl)-4-methyl-2-({1-[4-(6-methylpyridin-3-yl)benzoyl]piperidin-4-yl}methyl)-2H-indazole-5-carboxamide], the IC50 in test [2] is more than 50 nM. Still for that read-out and setting: for `Cc1c(C(=O)NCCOCC2CC2)ccc2nn(CC3CN(C(=O)c4ccc(Oc5ccc(F)cc5)cc4)C3)cc12` [Example E103, N-[2-(cyclopropylmethoxy)ethyl]-2-({1-[4-(4-fluorophenoxy)benzoyl]azetidin-3-yl}-methyl)-4-methyl-2H-indazole-5-carboxamide] the value was more than 50 nM; for `Cc1c(C(=O)NCCOCC(F)(F)F)ccc2nn(CC3CCN(C(=O)c4ccc(C(F)(F)F)cc4)CC3)cc12` [Example E68, 4-methyl-N-[2-(2,2,2-trifluoroethoxy)ethyl]-2-({1-[4-(trifluoromethyl)benzoyl]-piperidin-4-yl}methyl)-2H-indazole-5-carboxamide], more than 50 nM.
